Data published in article PMC7998669, “7-(2-Anilinopyrimidin-4-yl)-1-benzazepin-2-ones Designed by a “Cut and Glue” Strategy Are Dual Aurora A/VEGF-R Kinase Inhibitors” (Molecules, 2021).

Experiments:
Assay in all cases: radiometric 33PanQinase protein kinase assay
Assay type in all cases: biochemical
Settings in all cases: radiometric assay, 1 µM ATP
VEGF-R2 = target: T1, VEGF-R2 (Homo sapiens, UniProt P35968)
T1 construct: host or cells: Sf9 (baculovirus)
Experimental: (§1) The inhibitory activity of prototype 2a was determined in a panel of 24 tumor-relevant protein kinases using a radiometric assay. Only the kinases Aurora A, VEGF-R2 and VEGF-R3 were inhibited with single digit micromolar IC50 values (Table 2). Structural modifications were then implemented, particularly directed to improve inhibition of Aurora A. The so-designed congeners with small substituents at the aniline ring 2b–2n were examined for inhibition of Aurora A and of VEGF-R2, VEGF-R3 and Aurora B for comparison (Table 3).
(§2) The screening for protein kinase inhibition was performed with the radiometric ^33Panqinase activity assay at Reaction Biology Europe GmbH (Freiburg) using a robotic system (Beckmann Coulter/SagianRoboter) and 96-well plates (FlashPlates, Perkin/Elmer/NEN, Boston, MA, USA). In brief, the transfer of ^33P-phosphate into the substrate was measured with a microplate scintillation counter (Microbeta Trilux, Wallace). Protein kinases were expressed in Sf9 cells as recombinant glutathione S-transferase (GST) or polyhistidine (His)-tagged proteins in baculovirus. Isolation and purification of expressed kinases were performed with affinity chromatography by using GSH agarose (Sigma) or Ni-NTA agarose (Qiagen). The standard solution for each enzyme contained: 60 mM HEPES-NaOH (pH 7.5), 3 mM MgCl2, 3 µM sodium orthovanadate, 1.2 mM DTT, 50 µg/mL PEG20000 and 1 µM [γ-^33P]-ATP (approximately 5 × 10^5 cpm per well). In chronological order the reaction mixture was prepared: 20 µL standard solution, 5 µL ATP solution in water, 5 µL of the compound in 10% DMSO and 20 µL of enzyme/substrate mixture (50:50). Each kinase contained different substrates in different concentrations: 125 ng/50 µL Poly(Glu, Tyr)4:1 for 20 ng/50 µL IGF1-R, 25 ng/50 µL IGF1-R, 20 ng/50 µL EGF-R, 25 ng/50 µL EGF-R, 40 ng/50 µL EGF-R, 10 ng/50 µL EPHB4, 20 ng/50 µL EPHB4, 200 ng/50 µL ERBB2, 10 ng/50 µL SRC, 100 ng/50 µL FAK, 200 ng/50 µL FAK, 50 ng/50 µL VEGF-R2, 100 ng/50 µL VEGF-R3, 200 ng/50 µLTIE2; 250 ng/50 µL Poly(Glu, Tyr)4:1 for 200 ng/50 µL TIE2; 500 ng/50 µL tetra (LRRWSLG) for 50 ng/50 µL Aurora-A, 25 ng/50 µL PAK4, 25 ng/50 µL PDK1; 250 ng/50 µL tetra (LRRWSLG) for 50 ng/50 µL Aurora-B, 200 ng/50 µL Aurora-B; 125 ng/50 µL Histon H1 for 100 ng/50 µL CDK2/CycA; 250 ng/50 µL Rb-CTF for 50 ng/50 µL CDK/CycD1; 500 ng/50 µL Rb-CTF for 50 ng/50 µL CDK4/CycD1; 125 ng/50 µL Poly(ala, Glu, Lys, Tyr)6:2:5:1 for 25 ng/50 µL INS-R, 50 ng/50 µL PDGFR-beta, 100 ng/50 µL PDGFR-beta, 100 ng/50 µL FLT3, 150 ng/50 µL FLT3, 20 ng/50 µL MET, 50 ng/50 µL MET, 100 ng/50 µL MET; 250 ng/50 µL Casein for 200 ng/50 µL CK2-alpha1, 200 ng/50 µL PLK1; 1000 ng/50 µL Casein for 200 ng/50 µL PLK1, 200 ng/50 µL CK2-alpha1; 1000 ng/50 µLGSK3 (14–27) for 100 ng/50 µL AKT1; 125 ng/50 µL p53-CTM for 150 ng/50 µL CK2-alpha1, 200 ng/50 µLCK2-alpha1; 250 ng/50 µL MEK-KM for 20 ng/50 µL B-RAF-VE; autophosphorylation at ARK5, COT and SAK. After incubation (80 min, 30 °C) the reaction was stopped by adding 50 µL 2% (v/v) phosphoric acid to the reaction mixture. The microplate was washed twice with 200 µL 0.9% (v/v) saturated sodium chloride or water. The measured radioactivity, conditioned by the incorporation of [γ-^33P]-phosphate, is proportional to kinase activity. Furthermore, low control and high control were measured to determine the residual activity (%). As low controls, mixtures with substrate, but without enzyme were used to determine the unspecific binding of [γ-^33P]-phosphate to the well plate. Mixtures with enzyme, but without inhibitor were used as high controls to determine maximum enzyme activity. The IC50-values of the distinct compounds were calculated with Quattro Workflow V1.1.0.8 (Quattro Research GmbH, München, Germany). Dose response curves were generated by measurement of the residual activity of ten different inhibitor concentrations (0.1 mM, 30.0 µM, 10 µM, 3.0 µM, 1.0 µM, 0.3 µM, 0.1 µM, 30.0 nM, 10.0 nM and 3.0 nM). […]

Aurora-A = target: T2, Aurora-A (Homo sapiens, UniProt O14965)
T2 construct: host or cells: Sf9 (baculovirus)
T2 sequence (O14965 1-403): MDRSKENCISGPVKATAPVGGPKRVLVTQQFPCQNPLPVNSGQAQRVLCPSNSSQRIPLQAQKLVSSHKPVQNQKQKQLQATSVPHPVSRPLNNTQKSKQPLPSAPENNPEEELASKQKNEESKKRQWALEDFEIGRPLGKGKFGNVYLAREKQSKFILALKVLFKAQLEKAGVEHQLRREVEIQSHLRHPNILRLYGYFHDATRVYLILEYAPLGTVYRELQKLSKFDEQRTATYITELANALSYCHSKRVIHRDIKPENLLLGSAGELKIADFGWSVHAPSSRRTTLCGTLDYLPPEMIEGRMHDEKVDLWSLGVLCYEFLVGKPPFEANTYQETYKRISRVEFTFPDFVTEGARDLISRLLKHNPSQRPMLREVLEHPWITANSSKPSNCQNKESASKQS
Experimental: as §1, §2

VEGF-R3 = target: T3, VEGF-R3 (Homo sapiens, UniProt P35916)
T3 construct: host or cells: Sf9 (baculovirus)
T3 sequence (P35916 25-1363): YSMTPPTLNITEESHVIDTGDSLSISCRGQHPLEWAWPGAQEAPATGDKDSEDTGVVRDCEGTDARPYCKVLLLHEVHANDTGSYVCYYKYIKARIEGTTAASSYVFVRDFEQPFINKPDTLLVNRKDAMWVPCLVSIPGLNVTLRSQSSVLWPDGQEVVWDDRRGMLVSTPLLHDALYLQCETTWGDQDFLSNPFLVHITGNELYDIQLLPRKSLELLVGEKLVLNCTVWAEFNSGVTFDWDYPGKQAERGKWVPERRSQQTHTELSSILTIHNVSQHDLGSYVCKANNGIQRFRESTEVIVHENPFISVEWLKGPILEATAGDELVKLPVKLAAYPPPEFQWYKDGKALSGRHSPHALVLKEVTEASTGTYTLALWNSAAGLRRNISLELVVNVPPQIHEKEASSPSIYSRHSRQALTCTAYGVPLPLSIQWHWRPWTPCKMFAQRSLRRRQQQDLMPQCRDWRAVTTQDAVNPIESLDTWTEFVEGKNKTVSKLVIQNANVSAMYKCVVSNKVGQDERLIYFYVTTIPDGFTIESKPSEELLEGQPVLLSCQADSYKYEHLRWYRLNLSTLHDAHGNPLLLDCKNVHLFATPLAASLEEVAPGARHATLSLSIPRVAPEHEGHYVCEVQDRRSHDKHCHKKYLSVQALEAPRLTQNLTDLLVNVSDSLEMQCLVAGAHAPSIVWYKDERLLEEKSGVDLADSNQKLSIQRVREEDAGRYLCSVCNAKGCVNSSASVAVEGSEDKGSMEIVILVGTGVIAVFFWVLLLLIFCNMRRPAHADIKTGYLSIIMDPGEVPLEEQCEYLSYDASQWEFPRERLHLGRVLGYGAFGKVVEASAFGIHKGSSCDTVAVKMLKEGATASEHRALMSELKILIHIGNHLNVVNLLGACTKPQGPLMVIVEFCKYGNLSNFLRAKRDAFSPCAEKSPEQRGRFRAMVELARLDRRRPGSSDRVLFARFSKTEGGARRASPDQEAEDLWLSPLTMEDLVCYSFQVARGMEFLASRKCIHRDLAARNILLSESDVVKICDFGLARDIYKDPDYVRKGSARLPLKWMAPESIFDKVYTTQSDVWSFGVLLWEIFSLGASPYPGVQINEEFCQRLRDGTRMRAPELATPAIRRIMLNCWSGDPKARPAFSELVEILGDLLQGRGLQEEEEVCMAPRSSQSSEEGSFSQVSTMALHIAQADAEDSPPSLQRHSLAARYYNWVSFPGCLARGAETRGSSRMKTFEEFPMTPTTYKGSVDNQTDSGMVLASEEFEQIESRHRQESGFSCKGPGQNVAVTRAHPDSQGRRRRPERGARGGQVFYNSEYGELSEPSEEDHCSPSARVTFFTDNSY
Experimental: as §1, §2

Aurora-B = target: T4, Aurora-B (Homo sapiens, UniProt Q96GD4)
T4 construct: host or cells: Sf9 (baculovirus)
T4 sequence (Q96GD4 whole entry): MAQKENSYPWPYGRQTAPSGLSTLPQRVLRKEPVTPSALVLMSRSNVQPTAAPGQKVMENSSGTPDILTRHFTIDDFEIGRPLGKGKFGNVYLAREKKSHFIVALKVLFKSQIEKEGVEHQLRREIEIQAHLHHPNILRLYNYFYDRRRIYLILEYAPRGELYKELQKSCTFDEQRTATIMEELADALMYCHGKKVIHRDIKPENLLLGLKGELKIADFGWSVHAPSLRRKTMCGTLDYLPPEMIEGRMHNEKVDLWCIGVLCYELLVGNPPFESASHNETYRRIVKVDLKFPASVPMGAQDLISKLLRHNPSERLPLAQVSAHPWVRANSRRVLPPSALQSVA
Experimental: as §1, §2

T1 sequence (P35968 20-1356): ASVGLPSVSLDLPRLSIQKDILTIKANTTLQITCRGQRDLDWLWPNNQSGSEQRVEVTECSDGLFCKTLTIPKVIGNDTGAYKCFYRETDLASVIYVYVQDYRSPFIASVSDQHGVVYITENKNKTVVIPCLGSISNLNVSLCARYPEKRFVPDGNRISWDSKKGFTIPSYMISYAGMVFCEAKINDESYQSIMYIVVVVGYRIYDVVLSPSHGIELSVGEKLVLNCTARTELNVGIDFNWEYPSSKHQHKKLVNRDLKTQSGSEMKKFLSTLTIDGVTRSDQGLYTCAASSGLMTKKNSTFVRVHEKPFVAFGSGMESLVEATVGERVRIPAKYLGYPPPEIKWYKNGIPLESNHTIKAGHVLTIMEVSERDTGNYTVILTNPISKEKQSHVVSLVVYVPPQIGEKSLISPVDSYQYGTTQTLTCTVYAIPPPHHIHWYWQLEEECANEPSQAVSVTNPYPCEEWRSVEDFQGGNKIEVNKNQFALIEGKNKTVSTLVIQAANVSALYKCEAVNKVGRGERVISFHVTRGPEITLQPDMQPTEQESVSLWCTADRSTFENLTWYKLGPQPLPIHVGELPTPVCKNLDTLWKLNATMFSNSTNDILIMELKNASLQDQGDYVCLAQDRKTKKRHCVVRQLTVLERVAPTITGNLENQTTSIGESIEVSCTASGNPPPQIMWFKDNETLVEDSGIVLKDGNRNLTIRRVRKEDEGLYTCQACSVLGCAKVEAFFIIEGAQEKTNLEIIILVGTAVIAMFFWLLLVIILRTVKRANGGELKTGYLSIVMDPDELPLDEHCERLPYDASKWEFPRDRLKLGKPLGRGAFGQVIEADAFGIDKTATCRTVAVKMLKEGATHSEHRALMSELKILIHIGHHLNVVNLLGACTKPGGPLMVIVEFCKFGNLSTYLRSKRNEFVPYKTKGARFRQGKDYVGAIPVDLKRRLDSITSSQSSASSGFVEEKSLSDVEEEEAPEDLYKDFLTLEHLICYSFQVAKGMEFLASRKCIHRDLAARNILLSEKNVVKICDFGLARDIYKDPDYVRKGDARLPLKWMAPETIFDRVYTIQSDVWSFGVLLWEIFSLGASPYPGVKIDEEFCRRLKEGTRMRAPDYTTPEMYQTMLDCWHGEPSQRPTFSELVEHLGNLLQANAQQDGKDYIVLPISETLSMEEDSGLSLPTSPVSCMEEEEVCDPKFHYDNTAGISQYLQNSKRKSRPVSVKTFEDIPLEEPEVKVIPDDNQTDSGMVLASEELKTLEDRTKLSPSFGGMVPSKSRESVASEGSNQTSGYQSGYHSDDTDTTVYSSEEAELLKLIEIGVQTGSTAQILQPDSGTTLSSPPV

Structure (SMILES): O=C1CCCc2cc(-c3ccnc(Nc4ccccc4)n3)ccc2N1 [Compound 2a, 7-(2-Anilinopyrimidin-4-yl)-1,3,4,5-tetrahydro-2H-1-benzazepin-2-one]
- IC50 (VEGF-R2): 2.8 µM
- IC50 (Aurora-A): 2.4 µM
- IC50 (VEGF-R3): 5.9 µM
- IC50 (Aurora-B): 26 µM

Structure (SMILES): O=C1CCCc2cc(-c3ccnc(Nc4ccc(O)cc4)n3)ccc2N1 [Compound 2e, 7-[2-(4-Hydroxyanilino)pyrimidin-4-yl]-1,3,4,5-tetrahydro-2H-1-benzazepin-2-one]
- IC50 (VEGF-R2): 1.1 µM
- IC50 (Aurora-A): 0.99 µM
- IC50 (VEGF-R3): 1.5 µM
- IC50 (Aurora-B): 3.5 µM

Structure (SMILES): COc1ccc(Nc2nccc(-c3ccc4c(c3)CCCC(=O)N4)n2)cc1O [Compound 2n, 7-[2-(3-Hydroxy-4-methoxyanilino)pyrimidin-4-yl]-1,3,4,5-tetrahydro-2H-1-benzazepin-2-one]
- IC50 (VEGF-R2): 0.63 µM
- IC50 (Aurora-A): 1.4 µM
- IC50 (VEGF-R3): 0.55 µM
- IC50 (Aurora-B): 4.5 µM
